Test [1] has as its target GDP-bound NRAS wild-type protein (Homo sapiens, UniProt P01111). The test can be described thus: Binding to NRAS by surface plasmon resonance (SPR), Single Cycle Kinetics. Particulars: KD ratio, GDP-bound NRAS wild-type vs GDP-bound KRAS wild-type, SPR. (In general: In SPR one partner is held on a chip, and binding of the other changes the refractive index at the surface.)

Test [2] has as its target GDP-bound HRAS wild-type protein (Homo sapiens, UniProt P01112). In words: Binding to HRAS by surface plasmon resonance (SPR), Single Cycle Kinetics. Particulars: KD ratio, GDP-bound HRAS wild-type vs GDP-bound KRAS wild-type, SPR.

Chain of GDP-bound HRAS wild-type protein (P01112 whole entry): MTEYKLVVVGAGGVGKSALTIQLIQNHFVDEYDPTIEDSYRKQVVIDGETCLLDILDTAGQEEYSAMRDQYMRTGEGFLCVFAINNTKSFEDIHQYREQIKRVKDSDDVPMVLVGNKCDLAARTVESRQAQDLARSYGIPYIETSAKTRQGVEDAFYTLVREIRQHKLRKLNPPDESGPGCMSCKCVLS
Chain of GDP-bound NRAS wild-type protein (P01111 whole entry): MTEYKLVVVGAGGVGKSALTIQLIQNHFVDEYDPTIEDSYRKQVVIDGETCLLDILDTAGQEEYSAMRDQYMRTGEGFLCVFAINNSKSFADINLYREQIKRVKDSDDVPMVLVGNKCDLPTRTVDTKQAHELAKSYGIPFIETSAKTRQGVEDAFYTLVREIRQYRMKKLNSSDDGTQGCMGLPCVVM

With `CCO[C@@H]1C[C@H]2C(=O)NC3(CCC3)C(=O)N(C)[C@@H](C3CCCC3)C(=O)N(C)[C@H](C(=O)N3CCOCC3)CC(=O)N(C)[C@@H](Cc3ccccc3C#N)C(=O)N[C@@H]([C@@H](C)CC)C(=O)N(C)CC(=O)N(C)[C@H]3CCCCCN(C3=O)[C@@H](Cc3ccc(F)cc3)C(=O)N(C)CC(=O)N[C@@H](CCc3cc(F)c(C(F)(F)F)c(F)c3)C(=O)N2C1` [PP1185], the “NRAS/KRAS (ratio of KD value with respect to NRAS to KD value with respect to KRAS)” value in test [1] was “B (a compound having 3 or more and less than 10 is denoted as B)”. Further, the “HRAS/KRAS (ratio of KD value with respect to HRAS to KD value with respect to KRAS)” value in test [2] was “B (a compound having 3 or more and less than 10 is denoted as B)”.
For the molecule `CCO[C@@H]1C[C@H]2C(=O)NC3(CCC3)C(=O)N(C)[C@@H](C3CCCC3)C(=O)N(C)[C@H](C(=O)N3CCOCC3)CC(=O)N(C)[C@@H](Cc3cccc(C#N)c3)C(=O)N[C@@H]([C@@H](C)CC)C(=O)N(C)CC(=O)N(C)[C@H]3CCCCCN(C3=O)[C@@H](Cc3ccc(F)cc3)C(=O)N(C)CC(=O)N[C@@H](CCc3cc(F)c(C(F)(F)F)c(F)c3)C(=O)N2C1` [PP1186], the “NRAS/KRAS (ratio of KD value with respect to NRAS to KD value with respect to KRAS)” value in test [1] is “B (a compound having 3 or more and less than 10 is denoted as B)”. Also, the “HRAS/KRAS (ratio of KD value with respect to HRAS to KD value with respect to KRAS)” value in test [2] was “B (a compound having 3 or more and less than 10 is denoted as B)”.
Take `CCO[C@@H]1C[C@H]2C(=O)NC3(CCC3)C(=O)N(C)[C@@H](C3CCCC3)C(=O)N(C)[C@H](C(=O)N3CCOCC3)CC(=O)N(C)[C@@H](Cc3ccc(C#N)cc3)C(=O)N[C@@H]([C@@H](C)CC)C(=O)N(C)CC(=O)N(C)[C@H]3CCCCCN(C3=O)[C@@H](Cc3ccc(F)cc3)C(=O)N(C)CC(=O)N[C@@H](CCc3cc(F)c(C(F)(F)F)c(F)c3)C(=O)N2C1` [PP1187]: the “NRAS/KRAS (ratio of KD value with respect to NRAS to KD value with respect to KRAS)” value in test [1] was “B (a compound having 3 or more and less than 10 is denoted as B)”. Also, the “HRAS/KRAS (ratio of KD value with respect to HRAS to KD value with respect to KRAS)” value in test [2] was “B (a compound having 3 or more and less than 10 is denoted as B)”.
As to `CCO[C@@H]1C[C@H]2C(=O)NC3(CCC3)C(=O)N(C)[C@@H](C3CCCC3)C(=O)N(C)[C@H](C(=O)N3CCOCC3)CC(=O)N(C)[C@@H](Cc3ccc(Cl)c(Cl)c3)C(=O)N[C@@H]([C@@H](C)CC)C(=O)N(C)CC(=O)N(C)[C@H]3CCCCCN(C3=O)[C@@H](Cc3ccc(F)cc3)C(=O)N(C)CC(=O)N[C@@H](CCc3cc(F)c(C(F)(F)F)c(F)c3)C(=O)N2C1` [PP1188], the “NRAS/KRAS (ratio of KD value with respect to NRAS to KD value with respect to KRAS)” value in test [1] was “B (a compound having 3 or more and less than 10 is denoted as B)”. In addition, the “HRAS/KRAS (ratio of KD value with respect to HRAS to KD value with respect to KRAS)” value in test [2] is “B (a compound having 3 or more and less than 10 is denoted as B)”.
For the molecule `CCO[C@@H]1C[C@H]2C(=O)NC3(CCC3)C(=O)N(C)[C@@H](C3CCCC3)C(=O)N(C)[C@H](C(=O)N(C)C)CC(=O)N(C)[C@@H](C)C(=O)N[C@@H]([C@@H](C)CC)C(=O)N(C)CC(=O)N(C)[C@H]3CCCCCN(C3=O)[C@@H](Cc3ccc(F)cc3)C(=O)N(C)CC(=O)N[C@@H](CCc3cc(F)c(C(F)(F)F)c(F)c3)C(=O)N2C1` [PP1189], the “NRAS/KRAS (ratio of KD value with respect to NRAS to KD value with respect to KRAS)” value in test [1] was “B (a compound having 3 or more and less than 10 is denoted as B)”. For the same molecule, the “HRAS/KRAS (ratio of KD value with respect to HRAS to KD value with respect to KRAS)” value in test [2] was “B (a compound having 3 or more and less than 10 is denoted as B)”.
`CCO[C@@H]1C[C@H]2C(=O)NC3(CCC3)C(=O)N(C)[C@@H](C3CCCC3)C(=O)N(C)[C@H](C(=O)N(C)C)CC(=O)N(C)[C@@H](CC)C(=O)N[C@@H]([C@@H](C)CC)C(=O)N(C)CC(=O)N(C)[C@H]3CCCCCN(C3=O)[C@@H](Cc3ccc(F)cc3)C(=O)N(C)CC(=O)N[C@@H](CCc3cc(F)c(C(F)(F)F)c(F)c3)C(=O)N2C1` [PP1190]: the “NRAS/KRAS (ratio of KD value with respect to NRAS to KD value with respect to KRAS)” value in test [1] was “B (a compound having 3 or more and less than 10 is denoted as B)”. Also, in test [2], the “HRAS/KRAS (ratio of KD value with respect to HRAS to KD value with respect to KRAS)” value was “B (a compound having 3 or more and less than 10 is denoted as B)”.
As for `CCO[C@@H]1C[C@H]2C(=O)NC3(CCC3)C(=O)N(C)[C@@H](C3CCCC3)C(=O)N(C)[C@H](C(=O)N(C)C)CC(=O)N(C)[C@@H](CC(F)F)C(=O)N[C@@H]([C@@H](C)CC)C(=O)N(C)CC(=O)N(C)[C@H]3CCCCCN(C3=O)[C@@H](Cc3ccc(F)cc3)C(=O)N(C)CC(=O)N[C@@H](CCc3cc(F)c(C(F)(F)F)c(F)c3)C(=O)N2C1` [PP1191], in test [1], the “NRAS/KRAS (ratio of KD value with respect to NRAS to KD value with respect to KRAS)” value was “A (a compound having 10 or more and less than 20 is denoted as A)”. For the same molecule, in test [2], the “HRAS/KRAS (ratio of KD value with respect to HRAS to KD value with respect to KRAS)” value is “B (a compound having 3 or more and less than 10 is denoted as B)”.
For the molecule `CCO[C@@H]1C[C@H]2C(=O)NC3(CCC3)C(=O)N(C)[C@@H](C3CCCC3)C(=O)N(C)[C@H](C(=O)N(C)C)CC(=O)N(C)[C@@H](CC3CC3)C(=O)N[C@@H]([C@@H](C)CC)C(=O)N(C)CC(=O)N(C)[C@H]3CCCCCN(C3=O)[C@@H](Cc3ccc(F)cc3)C(=O)N(C)CC(=O)N[C@@H](CCc3cc(F)c(C(F)(F)F)c(F)c3)C(=O)N2C1` [PP1192], the “NRAS/KRAS (ratio of KD value with respect to NRAS to KD value with respect to KRAS)” value in test [1] is “B (a compound having 3 or more and less than 10 is denoted as B)”. Also, in test [2], the “HRAS/KRAS (ratio of KD value with respect to HRAS to KD value with respect to KRAS)” value is “A (a compound having 10 or more and less than 20 is denoted as A)”.
Consider `CCO[C@@H]1C[C@H]2C(=O)NC3(CCC3)C(=O)N(C)[C@@H](C3CCCC3)C(=O)N(C)[C@H](C(=O)N(C)C)CC(=O)N(C)[C@@H](COC)C(=O)N[C@@H]([C@@H](C)CC)C(=O)N(C)CC(=O)N(C)[C@H]3CCCCCN(C3=O)[C@@H](Cc3ccc(F)cc3)C(=O)N(C)CC(=O)N[C@@H](CCc3cc(F)c(C(F)(F)F)c(F)c3)C(=O)N2C1` [PP1193], for which the “NRAS/KRAS (ratio of KD value with respect to NRAS to KD value with respect to KRAS)” value in test [1] is “B (a compound having 3 or more and less than 10 is denoted as B)”. Also, in test [2], the “HRAS/KRAS (ratio of KD value with respect to HRAS to KD value with respect to KRAS)” value is “B (a compound having 3 or more and less than 10 is denoted as B)”.
Take `CCO[C@@H]1C[C@H]2C(=O)NC3(CCC3)C(=O)N(C)[C@@H](C3CCCC3)C(=O)N(C)[C@H](C(=O)N(C)C)CC(=O)N(C)[C@@H](CCOC)C(=O)N[C@@H]([C@@H](C)CC)C(=O)N(C)CC(=O)N(C)[C@H]3CCCCCN(C3=O)[C@@H](Cc3ccc(F)cc3)C(=O)N(C)CC(=O)N[C@@H](CCc3cc(F)c(C(F)(F)F)c(F)c3)C(=O)N2C1` [PP1194]: the “NRAS/KRAS (ratio of KD value with respect to NRAS to KD value with respect to KRAS)” value in test [1] was “B (a compound having 3 or more and less than 10 is denoted as B)”. Besides, the “HRAS/KRAS (ratio of KD value with respect to HRAS to KD value with respect to KRAS)” value in test [2] is “B (a compound having 3 or more and less than 10 is denoted as B)”.
As to `CCO[C@@H]1C[C@H]2C(=O)NC3(CCC3)C(=O)N(C)[C@@H](C3CCCC3)C(=O)N(C)[C@H](C(=O)N(C)C)CC(=O)N(C)[C@@H](Cc3ccccc3)C(=O)N[C@@H]([C@@H](C)CC)C(=O)N(C)CC(=O)N(C)[C@H]3CCCCCN(C3=O)[C@@H](Cc3ccc(F)cc3)C(=O)N(C)CC(=O)N[C@@H](CCc3cc(F)c(C(F)(F)F)c(F)c3)C(=O)N2C1` [PP1195], the “NRAS/KRAS (ratio of KD value with respect to NRAS to KD value with respect to KRAS)” value in test [1] is “B (a compound having 3 or more and less than 10 is denoted as B)”. Besides, the “HRAS/KRAS (ratio of KD value with respect to HRAS to KD value with respect to KRAS)” value in test [2] was “B (a compound having 3 or more and less than 10 is denoted as B)”.
Consider `CCO[C@@H]1C[C@H]2C(=O)NC3(CCC3)C(=O)N(C)[C@@H](C3CCCC3)C(=O)N(C)[C@H](C(=O)N(C)C)CC(=O)N(C)[C@@H](Cc3cccnc3)C(=O)N[C@@H]([C@@H](C)CC)C(=O)N(C)CC(=O)N(C)[C@H]3CCCCCN(C3=O)[C@@H](Cc3ccc(F)cc3)C(=O)N(C)CC(=O)N[C@@H](CCc3cc(F)c(C(F)(F)F)c(F)c3)C(=O)N2C1` [PP1196], for which the “NRAS/KRAS (ratio of KD value with respect to NRAS to KD value with respect to KRAS)” value in test [1] is “B (a compound having 3 or more and less than 10 is denoted as B)”. Besides, the “HRAS/KRAS (ratio of KD value with respect to HRAS to KD value with respect to KRAS)” value in test [2] is “B (a compound having 3 or more and less than 10 is denoted as B)”.
For `CCO[C@@H]1C[C@H]2C(=O)NC3(CCC3)C(=O)N(C)[C@@H](C3CCCC3)C(=O)N(C)[C@H](C(=O)N(C)C)CC(=O)N(C)[C@@H](Cc3cccs3)C(=O)N[C@@H]([C@@H](C)CC)C(=O)N(C)CC(=O)N(C)[C@H]3CCCCCN(C3=O)[C@@H](Cc3ccc(F)cc3)C(=O)N(C)CC(=O)N[C@@H](CCc3cc(F)c(C(F)(F)F)c(F)c3)C(=O)N2C1` [PP1197], the “NRAS/KRAS (ratio of KD value with respect to NRAS to KD value with respect to KRAS)” value in test [1] was “B (a compound having 3 or more and less than 10 is denoted as B)”. In addition, in test [2], the “HRAS/KRAS (ratio of KD value with respect to HRAS to KD value with respect to KRAS)” value was “B (a compound having 3 or more and less than 10 is denoted as B)”.
For `CCO[C@@H]1C[C@H]2C(=O)NC3(CCC3)C(=O)N(C)[C@@H](C(CC)CC)C(=O)N(C)[C@H](C(=O)N(C)C)CC(=O)N(C)[C@@H](C)C(=O)N[C@@H]([C@@H](C)CC)C(=O)N(C)CC(=O)N(C)[C@H]3C/C=C\CCN(C3=O)[C@@H](Cc3ccc(C(F)(F)F)cc3)C(=O)N(C)CC(=O)N[C@@H](CCc3cc(F)c(C(F)(F)F)c(F)c3)C(=O)N2C1` [PP1199], the “NRAS/KRAS (ratio of KD value with respect to NRAS to KD value with respect to KRAS)” value in test [1] is “A (a compound having 10 or more and less than 20 is denoted as A)”. Further, in test [2], the “HRAS/KRAS (ratio of KD value with respect to HRAS to KD value with respect to KRAS)” value was “A (a compound having 10 or more and less than 20 is denoted as A)”.
For `CCO[C@@H]1C[C@H]2C(=O)NC3(CCC3)C(=O)N(C)[C@@H](C(CC)CC)C(=O)N(C)[C@H](C(=O)N(C)C)CC(=O)N(C)[C@@H](CC)C(=O)N[C@@H]([C@@H](C)CC)C(=O)N(C)CC(=O)N(C)[C@H]3C/C=C\CCN(C3=O)[C@@H](Cc3ccc(C(F)(F)F)cc3)C(=O)N(C)CC(=O)N[C@@H](CCc3cc(F)c(C(F)(F)F)c(F)c3)C(=O)N2C1` [PP1200], in test [1], the “NRAS/KRAS (ratio of KD value with respect to NRAS to KD value with respect to KRAS)” value is reported as “AA (a compound having 20 or more is denoted as AA)”. Further, the “HRAS/KRAS (ratio of KD value with respect to HRAS to KD value with respect to KRAS)” value in test [2] is “A (a compound having 10 or more and less than 20 is denoted as A)”.
